Results published in US9663510B2, “Substituted triazolopyridines and their use as TTK inhibitors” (Bayer Intellectual Property GmbH, priority 2011, dated 2017).
Like-named read-outs stand apart in the source and are kept apart here.

What was measured:
human kinase Mps-1 = human kinase Mps-1 (Homo sapiens (Human), UniProt P33981); experiment: Mps-1 kinase assay (TR-FRET); assay type: biochemical
[1] = system: HeLa human cervical tumor cells; experiment: HeLa cell proliferation assay (crystal violet); assay type: cell-based; settings: 96 h, 4 days incubation, read-out: Inhibition of cell proliferation, cell Line: HeLa IC50
[2] = read-out: Mps-1 Inhibition, IC50 (Assay with 10 μM ATP), 10 μM ATP
[3] = read-out: Mps-1 Inhibition, IC50 (Assay with 2 mM ATP), 2 mM ATP

Sequence of human kinase Mps-1 (P33981 whole entry): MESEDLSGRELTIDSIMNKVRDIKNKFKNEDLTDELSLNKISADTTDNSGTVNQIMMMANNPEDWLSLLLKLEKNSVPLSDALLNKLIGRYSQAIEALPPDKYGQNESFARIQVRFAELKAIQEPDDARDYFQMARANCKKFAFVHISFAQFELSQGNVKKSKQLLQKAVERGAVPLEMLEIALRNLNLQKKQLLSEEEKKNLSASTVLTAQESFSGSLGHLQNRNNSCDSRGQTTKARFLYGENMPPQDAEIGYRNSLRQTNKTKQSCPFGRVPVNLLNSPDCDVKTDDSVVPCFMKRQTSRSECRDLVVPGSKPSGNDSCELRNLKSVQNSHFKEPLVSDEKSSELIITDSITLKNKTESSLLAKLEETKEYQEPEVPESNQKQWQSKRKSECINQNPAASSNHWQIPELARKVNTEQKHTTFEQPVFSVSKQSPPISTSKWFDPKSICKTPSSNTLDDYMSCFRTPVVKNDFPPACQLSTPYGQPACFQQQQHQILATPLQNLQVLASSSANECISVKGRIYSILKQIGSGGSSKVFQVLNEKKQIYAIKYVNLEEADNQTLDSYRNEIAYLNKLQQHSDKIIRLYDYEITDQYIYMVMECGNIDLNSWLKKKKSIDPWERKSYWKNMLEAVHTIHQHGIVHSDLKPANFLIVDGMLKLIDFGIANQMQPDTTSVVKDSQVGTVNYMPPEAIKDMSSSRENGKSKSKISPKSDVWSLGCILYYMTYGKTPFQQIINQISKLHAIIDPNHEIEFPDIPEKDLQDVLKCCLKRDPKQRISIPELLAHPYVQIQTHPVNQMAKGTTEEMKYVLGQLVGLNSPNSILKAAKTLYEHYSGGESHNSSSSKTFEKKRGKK

Row | IC50 (human kinase Mps-1; [2]) | IC50 (human kinase Mps-1; [3]) | IC50 [1] | IC50 (human kinase Mps-1; 2 mM ATP) | Structure (SMILES)
1 | < 1 nM | < 1 nM | – | – | C[C@@H](C(=O)Nc1ccc(-c2ccc3nc(Nc4ccc(C(=O)N5CC(F)C5)cc4OCC(F)(F)F)nn3c2)cc1)c1ccc(F)cc1 [Example01.14, (2R)—N-{4-[2-({4-[(3-fluoroazetidin-1-yl)carbonyl]-2-(2,2,2-trifluoroethoxy)phenyl}amino)[1,2,4]triazolo[1,5-a]pyridin-6-yl]phenyl}-2-(4-fluorophenyl)propanamide]
2 | < 1 nM | < 1 nM | < 100 nM | – | C[C@@H](C(=O)Nc1ccc(-c2ccc3nc(Nc4ccc(C(=O)N5CC(O)C5)cc4OCC(F)(F)F)nn3c2)cc1)c1ccc(F)cc1 [Example01.15, (2R)-2-(4-fluorophenyl)-N-{4-[2-({4-[(3-hydroxyazetidin-1-yl)carbonyl]-2-(2,2,2-trifluoroethoxy)phenyl}amino)[1,2,4]triazolo[1,5-a]pyridin-6-yl]phenyl}propanamide]
3 | < 1 nM | – | < 600 nM | 4.8 nM | COc1cc(S(C)(=O)=O)ccc1Nc1nc2ccc(-c3ccc(NC(=O)[C@H](CO)c4ccc(F)cc4)cc3)cn2n1 [Example 01.17, (2S)-2-(4-fluorophenyl)-3-hydroxy-N-[4-(2-{[2-methoxy-4-(methylsulfonyl)phenyl]amino}[1,2,4]triazolo[1,5-a]pyridin-6-yl)phenyl]propanamide]
4 | < 1 nM | < 1 nM | < 200 nM | – | CS(=O)(=O)c1ccc(Nc2nc3ccc(-c4ccc(NC(=O)[C@H](N)c5ccc(F)cc5)cc4)cn3n2)c(OCC(F)(F)F)c1 [Example 01.19, (2R)-2-amino-2-(4-fluorophenyl)-N-[4-(2-{[4-(methylsulfonyl)-2-(2,2,2-trifluoroethoxyl)phenyl]amino}[1,2,4]triazolo[1,5-a]pyridin-6-yl)phenyl]ethanamide]
5 | < 1 nM | < 1 nM | < 100 nM | – | N[C@@H](C(=O)Nc1ccc(-c2ccc3nc(Nc4ccc(C(=O)N5CC(F)C5)cc4OCC(F)(F)F)nn3c2)cc1)c1ccc(F)cc1 [Example 01.24, (2R)-2-amino-N-{4-[2-({4-[(3-fluoroazetidin-1-yl)carbonyl]-2-(2,2,2-trifluoroethoxyl)phenyl}amino)[1,2,4]triazolo[1,5-a]pyridin-6-yl]phenyl}-2-(4-fluorophenyl)ethanamide]
6 | < 1 nM | < 1 nM | < 200 nM | – | N[C@@H](C(=O)Nc1ccc(-c2ccc3nc(Nc4ccc(C(=O)N5CCCC5)cc4OCC(F)(F)F)nn3c2)cc1)c1ccc(F)cc1 [Example 01.25, (2R)-2-amino-2-(4-fluorophenyl)-N-[4-(2-{[4-(pyrrolidin-1-ylcarbonyl)-2-(2,2,2-trifluoroethoxyl)phenyl]amino}[1,2,4]triazolo[1,5-a]pyridin-6-yl)phenyl]ethanamide]

Second part, the compound before the results:

Row | Structure (SMILES) | IC50 (human kinase Mps-1; [2]) | IC50 (human kinase Mps-1; [3]) | IC50 [1] | IC50 (human kinase Mps-1; 2 mM ATP)
7 | COc1cc(C(=O)N(C)C)ccc1Nc1nc2ccc(-c3ccc(NC(=O)[C@H](C)c4ccc(F)cc4)cc3)cn2n1 [Example01.12, 4-{[6-(4-{[(2R)-2-(4-fluorophenyl)propanoyl]amino}phenyl)[1,2,4]triazolo[1,5-a]pyridin-2-yl]amino}-3-methoxy-N,N-dimethylbenzamide] | < 1 nM | < 1 nM | < 200 nM | –
8 | COc1cc(C(=O)N2CCCC2)ccc1Nc1nc2ccc(-c3ccc(NC(=O)[C@H](C)c4ccc(F)cc4)cc3)cn2n1 [Example01.13, (2R)-2-(4-fluorophenyl)-N-[4-(2-{[2-methoxy-4-(pyrrolidin-1-ylcarbonyl)phenyl]amino}[1,2,4]triazolo[1,5-a]pyridin-6-yl)phenyl]propanamide] | < 1 nM | < 1 nM | < 400 nM | –
9 | C[C@@H](C(=O)Nc1ccc(-c2ccc3nc(Nc4ccc(C(=O)N5CCCC5)cc4OCC(F)(F)F)nn3c2)cc1)c1ccc(F)cc1 [Example 01.16, (2R)-2-(4-fluorophenyl)-N-[4-(2-{[4-(pyrrolidin-1-ylcarbonyl)-2-(2,2,2-trifluoroethoxyl)phenyl]amino}[1,2,4]triazolo[1,5-a]pyridin-6-yl)phenyl]propanamide] | < 1 nM | – | < 100 nM | 1.3 nM
10 | O=C(Nc1ccc(-c2ccc3nc(Nc4ccc(C(=O)N5CC(F)C5)cc4OCC(F)(F)F)nn3c2)cc1)[C@H](CO)c1ccc(F)cc1 [Example 01.18, (2S)—N-{4-[2-({4-[(3-fluoroazetidin-1-yl)carbonyl]-2-(2,2,2-trifluoroethoxyl)phenyl}amino)[1,2,4]triazolo[1,5-a]pyridin-6-yl]phenyl}-2-(4-fluorophenyl)-3-hydroxypropanamide] | < 1 nM | < 1 nM | < 100 nM | –
11 | COc1cc(N2CCOC2=O)ccc1Nc1nc2ccc(-c3ccc(NC(=O)[C@H](N)c4ccc(F)cc4)cc3)cn2n1 [Example 01.20, (2R)-2-amino-2-(4-fluorophenyl)-N-[4-(2-{[2-methoxy-4-(2-oxo-1,3-oxazolidin-3-yl)phenyl]amino}[1,2,4]triazolo[1,5-a]pyridin-6-yl)phenyl]ethanamide] | < 1 nM | – | < 200 nM | 1.5 nM
12 | COc1cc(C(=O)N2CC(F)C2)ccc1Nc1nc2ccc(-c3ccc(NC(=O)[C@H](N)c4ccc(F)cc4)cc3)cn2n1 [Example 01.21, (2R)-2-amino-N-{4-[2-({4-[(3-fluoroazetidin-1-yl)carbonyl]-2-methoxyphenyl}amino)[1,2,4]triazolo[1,5-a]pyridin-6-yl]phenyl}-2-(4-fluorophenyl)ethanamide] | < 1 nM | < 1 nM | < 200 nM | –
13 | COc1cc(C(=O)N2CCC2)ccc1Nc1nc2ccc(-c3ccc(NC(=O)[C@H](N)c4ccc(F)cc4)cc3)cn2n1 [Example 01.22, (2R)-2-amino-N-[4-(2-{[4-(azetidin-1-ylcarbonyl)-2-methoxyphenyl]amino}[1,2,4]triazolo[1,5-a]pyridin-6-yl)phenyl]-2-(4-fluorophenyl)ethanamide] | < 1 nM | < 1 nM | < 200 nM | –
14 | COc1cc(C(=O)N2CCCC2)ccc1Nc1nc2ccc(-c3ccc(NC(=O)[C@H](N)c4ccc(F)cc4)cc3)cn2n1 [Example 01.23, (2R)-2-amino-2-(4-fluorophenyl)-N-[4-(2-{[2-methoxy-4-(pyrrolidin-1-ylcarbonyl)phenyl]amino}[1,2,4]triazolo[1,5-a]pyridin-6-yl)phenyl]ethanamide] | < 1 nM | < 1 nM | < 400 nM | –
